Test results published in US8637467B2, “Pharmaceutical being used for treating cancer and fibrosis disease and the composition and uses thereof” (Wuxi MTLH Biotechnology Co., Ltd., priority 2008, dated 2014).
Where no end group is shown, it is not given here.

Experiments:
[1] = tested on: SMMC-7721; format: cell-based, Human; details: 72 h
Protocol: (§1) 2. Cell Lines • Human liver cancer cell line (SMMC-7721, BEL-7402, BEL-7402) were purchased from National Medical Academy of Sciences Tissue Bank and Chinese Academy of Sciences, Shanghai Cell line Research Institute.
(§2) 3. Cell Culture • All cell lines were incubated at 37C, 5% CO2 incubator with saturated humidity. Culture media was RPMI1640 media with 10% heat inactivated FBS, penicillin 100 u/ml, streptomycin 100 u/ml. After 48 hours media was changed. Cells were released with 0.25% trypsin and propagate. Cells used in the experiment were in log phase. Cell viability was determined using trypan blue staining.
(§3) 4. Methods • Take cells at log phase and release with 0.125% trypsin+0.01% EDTA and dilute cells to 2-4×10^4 cells/ml. Cells were placed in 96 well plate (180 ul/well), and were incubated at 37 C CO2 incubator for 24 hours. Media was changed, then peptide SEQ ID No:1 was added to the well (20 ul/well), incubate for 72 hours. Add MTT into 96 well plate (20 ul/well), and incubate for 4 hours. Media was removed, add DMSO (150 ul/well). The plate was shaken for 10 minutes. 7 concentration points (0.1 to 10 uM) was examined. Absorbance at 570 nm was measured for each well to calculate the IC50. IC50=(O.D. at well with no peptide−O.D. at well with peptide)/O.D. at well with no peptide

[2] = tested on: BEL-7404; format: cell-based, Human; details: 72 h
Protocol: as §1, §2, §3

[3] = tested on: BEL-7402; format: cell-based, Human; details: 72 h
Protocol: as §1, §2, §3

[4] = tested on: Rat CC14 liver damage model; test: Rat CC14 liver damage model (chronic liver fibrosis); format: in vivo, SD rat; parameters: Liver parameters: unit not given here
Protocol: To evaluate the protective effect of peptide SEQ ID NO:1 on liver damage, we used chronic liver fibrosis model (rat CC14 model) for efficacy evaluation.
Rat CC14 liver damage model
(1) Control group: saline, sc, 2 ml/kg, 10 rats
(2) model group: 40% CC14, sc, 2 ml/kg, 17 rats
(3) Gan-li-xin group: 25 mg/kg, iv, 10 ml/kg, 15 rats
(4) Prevention, high dose group: 50 μg peptide SEQ ID NO:1/kg, iv, 10 ml/kg, 17 rats
(5) Prevention, low dose group: 10 μg peptide SEQ ID NO:1/kg, iv, 10 ml/kg, 17 rats
(6) Treatment, high dose group: 100 μg peptide SEQ ID NO:1/kg, iv, 10 ml/kg, 17 rats
(7) Treatment, high dose group: 20 μg peptide SEQ ID NO:1/kg, iv, 10 ml/kg, 17 rats
Except for control group, inject 40% CC14 subcutaneously twice (Tuesday, and Friday) every week in Group (2) to (6), drug volume (0.2 ml/100 g, the first time 0.5 ml/100 g). CC14 Model construction is 6 weeks. Parallel to the model construction, inject intravenously peptide SEQ ID NO:1 at 50 μg/kg and 10 μg/kg in group (4) and (5), respectively, once a day for 6 weeks. For Group (3), (6), and (7), starting from week 5, inject Gan-li-xin 25 mg/kg, peptide SEQ ID NO:1 at 100 μg/kg and 20 μg/kg, respectively, once a day, continuously for 2 weeks.
All rats were weighed once a week during model construction and drug injection. According to weight, the dose of drugs is adjusted. 24 hours after the last time of CC14 injection, liver weight parameters were examined.
Blood was extracted from femoral artery and serum was separated. The following parameters were examined: serum alanine aminotransferase (ALT), aspartate aminotransferase (AST), Bilirubin (TB), Alkaline phosphatase (ALP), total protein (TP), albumin (ALB), globulin (G), albumin/globulin ratio (A/G), glucose (GLU), total cholesterol (TCH), triglyceride (TG).
Liver homogenate: to examine cholesterol (TCH), triglyceride (TG), alanine aminotransferase (ALT), and aspartate aminotransferase (AST).
[…], dry at 110 C, examine Hydroxyproline (HPA).
Part of the liver is fixed in formalin for histology examination.

[5] = Mice weight in xenograph tumor mice models; format: in vivo, BALB/cA nude mice; details: all the xenograph tumor mice models, different concentration
Protocol: The tumor of xenograph nude mice grew to 100˜300 mm^3. Tumor mice were divided into different groups for drug testing. In the experiment below, there were 12 nude mice in negative control group, and 6 nude mice in the group with tested drug. Tumor diameter was measured three times each week, and mice weight was measured at the same time.

[6] = Prevention, High dose 50 μg/kg iv, once a day for 6 weeks
[7] = Prevention, low dose 10 μg/kg iv, once a day for 6 weeks
[8] = Treatment, High dose 100 μg/kg iv, once a day for 2 weeks from week 5
[9] = Treatment, low dose 20 μg/kg iv, once a day for 2 weeks from week 5

**Q.** With “SKVTKKYHEVLQLRPKTGVRGLHKSLTDVALEHHEECDCVCRGSTGG-OH (cysteines drawn unpaired) [Peptide SEQ ID NO:1]” as the substance, how does the IC50 [1] read?
**A.** 1.25 µM

**Q.** What about the IC50 [2] of the same substance?
**A.** 2.33 µM

**Q.** What about the IC50 [3] of the same substance?
**A.** 1.78 µM

**Q.** And the “ALB (albumin), serum” value [4, 6]?
**A.** 20.8 ± 2.0 g/L

**Q.** What about the “ALP (alkaline phosphatase), serum” value [4, 6] of the same substance?
**A.** 266.3 ± 85.7 IU/L

**Q.** What about the “ALT (alanine aminotransferase), serum” value [4, 6] of the same substance?
**A.** 75 ± 29.4 IU/L

**Q.** What about the “AST (aspartate aminotransferase), serum” value [4, 6] of the same substance?
**A.** 236.8 ± 27.2 IU/L

**Q.** And the “Bilirubin, serum” value [4, 6]?
**A.** 3.3 ± 0.1 µmol/L

**Q.** And the “GLU (glucose), serum” value [4, 6]?
**A.** 6.5 ± 0.9 mmol/L

**Q.** What about the Liver parameters [4, 6] of the same substance?
**A.** 4.3 ± 0.4

**Q.** What about the Liver weight [4, 6] of the same substance?
**A.** 12.1 ± 2.5 g

**Q.** What about the “TCH (total cholesterol), serum” value [4, 6] of the same substance?
**A.** 1.9 ± 0.3 mmol/L

**Q.** And the “TG (triglyceride), serum” value [4, 6]?
**A.** 0.6 ± 0.1 mmol/L

**Q.** What about the “TP (total protein), serum” value [4, 6] of the same substance?
**A.** 68.3 ± 4.1 g/L

**Q.** What about the “hydroxyproline amount in rat liver” value [4, 6] of the same substance?
**A.** 0.216 ± 0.062 ug/mg wet weight

**Q.** What about the “ALB (albumin), serum” value [4, 7] of the same substance?
**A.** 18.8 ± 2.4 g/L

**Q.** What about the “ALP (alkaline phosphatase), serum” value [4, 7] of the same substance?
**A.** 304.3 ± 90.4 IU/L

**Q.** And the “ALT (alanine aminotransferase), serum” value [4, 7]?
**A.** 80.6 ± 21.3 IU/L

**Q.** What about the “AST (aspartate aminotransferase), serum” value [4, 7] of the same substance?
**A.** 248.8 ± 38.3 IU/L

**Q.** And the “Bilirubin, serum” value [4, 7]?
**A.** 3.3 ± 0.5 µmol/L

**Q.** And the “GLU (glucose), serum” value [4, 7]?
**A.** 6.2 ± 0.7 mmol/L

**Q.** And the Liver parameters [4, 7]?
**A.** 4.1 ± 0.4

**Q.** What about the Liver weight [4, 7] of the same substance?
**A.** 11.3 ± 2.5 g

**Q.** What about the “TCH (total cholesterol), serum” value [4, 7] of the same substance?
**A.** 1.6 ± 0.3 mmol/L

**Q.** What about the “TG (triglyceride), serum” value [4, 7] of the same substance?
**A.** 0.6 ± 0.2 mmol/L

**Q.** And the “TP (total protein), serum” value [4, 7]?
**A.** 66.4 ± 4.6 g/L

**Q.** And the “hydroxyproline amount in rat liver” value [4, 7]?
**A.** 0.192 ± 0.045 ug/mg wet weight

**Q.** What about the “ALB (albumin), serum” value [4, 8] of the same substance?
**A.** 19.7 ± 3.7 g/L

**Q.** What about the “ALP (alkaline phosphatase), serum” value [4, 8] of the same substance?
**A.** 216.5 ± 91.0 IU/L

**Q.** And the “ALT (alanine aminotransferase), serum” value [4, 8]?
**A.** 69.8 ± 31.3 IU/L

**Q.** What about the “AST (aspartate aminotransferase), serum” value [4, 8] of the same substance?
**A.** 219.6 ± 56.7 IU/L

**Q.** What about the “Bilirubin, serum” value [4, 8] of the same substance?
**A.** 2.9 ± 0.4 µmol/L

**Q.** What about the “GLU (glucose), serum” value [4, 8] of the same substance?
**A.** 6.3 ± 1.0 mmol/L

**Q.** What about the Liver parameters [4, 8] of the same substance?
**A.** 4.0 ± 0.5

**Q.** What about the Liver weight [4, 8] of the same substance?
**A.** 10.1 ± 3.2 g

**Q.** What about the “TCH (total cholesterol), serum” value [4, 8] of the same substance?
**A.** 2.1 ± 0.8 mmol/L

**Q.** What about the “TG (triglyceride), serum” value [4, 8] of the same substance?
**A.** 0.5 ± 0.2 mmol/L

**Q.** And the “TP (total protein), serum” value [4, 8]?
**A.** 70.4 ± 4.4 g/L

**Q.** And the “hydroxyproline amount in rat liver” value [4, 8]?
**A.** 0.165 ± 0.038 ug/mg wet weight

**Q.** What about the “ALB (albumin), serum” value [4, 9] of the same substance?
**A.** 18.8 ± 2.5 g/L

**Q.** What about the “ALP (alkaline phosphatase), serum” value [4, 9] of the same substance?
**A.** 357.1 ± 120.7 IU/L

**Q.** What about the “ALT (alanine aminotransferase), serum” value [4, 9] of the same substance?
**A.** 90.9 ± 37.3 IU/L

**Q.** And the “AST (aspartate aminotransferase), serum” value [4, 9]?
**A.** 260.0 ± 73.1 IU/L

**Q.** What about the “Bilirubin, serum” value [4, 9] of the same substance?
**A.** 3.3 ± 0.8 µmol/L

**Q.** What about the “GLU (glucose), serum” value [4, 9] of the same substance?
**A.** 6.1 ± 0.9 mmol/L

**Q.** And the Liver parameters [4, 9]?
**A.** 4.4 ± 0.8

**Q.** And the Liver weight [4, 9]?
**A.** 12.9 ± 4.7 g

**Q.** And the “TCH (total cholesterol), serum” value [4, 9]?
**A.** 1.6 ± 0.5 mmol/L

**Q.** And the “TG (triglyceride), serum” value [4, 9]?
**A.** 0.5 ± 0.2 mmol/L

**Q.** What about the “TP (total protein), serum” value [4, 9] of the same substance?
**A.** 69.1 ± 6.1 g/L

**Q.** And the “hydroxyproline amount in rat liver” value [4, 9]?
**A.** 0.222 ± 0.048 ug/mg wet weight

**Q.** What about the “steatosis and fat cavities in liver cells (histology)” value ([4]; prevention high dose group, 3 cases) of the same substance?
**A.** 50-60%

**Q.** And the “steatosis and fat cavities in liver cells (histology)” value ([4]; prevention high dose group, 5 cases)?
**A.** 60-80%

**Q.** What about the “steatosis and fat cavities in liver cells (histology)” value ([4]; prevention low dose group, all cases) of the same substance?
**A.** 60-80%

**Q.** And the “liver damage caused by CC14 in rat (summary)” value ([4]; serum biochemical parameters, liver hydroxyproline amount, liver pathological features)?
**A.** can improve liver damage caused by CC14 in rat

**Q.** What about the “steatosis and fat cavities in liver cells (histology)” value ([4]; treatment high dose group, 2 cases) of the same substance?
**A.** Over 80%

**Q.** What about the “steatosis and fat cavities in liver cells (histology)” value ([4]; treatment high dose group, 2 cases with less steatosis) of the same substance?
**A.** 50-60%

**Q.** What about the “steatosis and fat cavities in liver cells (histology)” value ([4]; treatment high dose group, 4 cases with even less steatosis) of the same substance?
**A.** < 30%

**Q.** And the “weight of the mice” value [5]?
**A.** not affected
